Laboratory results as given in patent US20100292205A1, “Pyrimidone Compounds As GSK-3 Inhibitors” (PFIZER INC., priority 2006, published 2010).

Target: T1, Recombinant human GSK3β (Homo sapiens, UniProt P49841)
T1 construct: His-tag; made in house; host or cells: Sf9 insect cells / baculovirus
Test: GSK-3β (Glycogen Synthase Kinase) cell free enzyme assay
Type: biochemical
Conditions: 1 μM; GSK-3β cell free enzyme assay; Examples 42-60; read-out: Percent inhibition at 1 μM
Protocol: Assay Protocol for GSK-3β (Glycogen Synthase Kinase) in a Cell Free Enzyme Assay
Recombinant human GSK3β was expressed in SF9/Baculo virus cells. His-tag protein was purified by affinity chromatography to a Ni-NTA Superflow column. Enzyme activity was assayed as the incorporation of [33P] from the gamma phosphate of [33P]ATP (PerkinElmer) into biotinylated peptide substrate bio-LC-S-R-H-S-S-P-H-Q-pS-E-D-E-E-E-OH (Anaspec). Reactions were carried out in a buffer containing 8 mM MOPS (pH 7.0), 10 mM Magnesium Acetate, 0.2 mM EDTA, 1 mM DTT and 2 uM cold ATP. The 33P-ATP was added for 0.025 uCi/well (120 uL) and the final concentration of substrate was 1.0 uM. Enzyme was preincubated with test agent for 30 minutes at room temperature followed by initiation of the reaction by the addition of substrate mix. Incubations were carried out at RT for 60 min. Reactions were stopped by addition of 0.66 volume of buffer containing: 12.5 mM EDTA, 0.25% Triton-X 100, 125 uM ATP, and 6.2 mg/ml streptavidin coated SPA beads (Amersham) in PBS without Ca or Mg. Radioactivity associated with the beads was quantified by scintillation counting of CPM in a Trilux counter (PerkinElmer).
Examples 42 to 60 were prepared using the analogous procedure described to prepare Example 41, substituting the appropriate starting material (Examples 1 to 35) and coupling with the appropriate acid. The assay protocol used is the percent inhibition at 1 μM for GSK-3β in the cell free enzyme assay described above.

T1 sequence (P49841 whole entry): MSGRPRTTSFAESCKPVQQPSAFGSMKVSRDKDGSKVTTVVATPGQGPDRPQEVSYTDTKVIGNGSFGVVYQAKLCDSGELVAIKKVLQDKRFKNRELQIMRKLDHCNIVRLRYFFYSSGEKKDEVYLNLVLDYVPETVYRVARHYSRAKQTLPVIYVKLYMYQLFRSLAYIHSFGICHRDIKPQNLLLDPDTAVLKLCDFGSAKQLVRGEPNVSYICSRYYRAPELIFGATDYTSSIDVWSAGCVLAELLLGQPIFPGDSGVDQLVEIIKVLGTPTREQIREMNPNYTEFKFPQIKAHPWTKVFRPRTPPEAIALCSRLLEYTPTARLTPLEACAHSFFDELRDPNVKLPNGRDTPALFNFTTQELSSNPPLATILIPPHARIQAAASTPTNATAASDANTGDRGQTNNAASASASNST

| Compound | inhibition at 1 µM [%] |
| --- | --- |
| CC(=O)N1CCCC(Nc2nc(-c3ccncc3)cc(=O)n2C)CC1 (stereo not shown) [Example 43, 2-[(1-Acetylazepan-4-yl)amino]-3-methyl-6-pyridin-4-ylpyrimidin-4(3H)-one] | 84 |
| CC(=O)N1[C@@H]2CC[C@H]1CN(c1nc(-c3ccncc3)cc(=O)n1C)C2 [Example 44, 2-[(1R,5S)-3-Acetyl-38-diazabicyclo[3.2.1]oct-8-yl]-3-methyl-6-pyridin-4-ylpyrimidin-4(3H)-one] | 72 |
| CC(=O)N1CCC(Nc2nc(-c3ccncc3)cc(=O)n2C)C1 (stereo not shown) [Example 45, 2-[(1-Acetylpyrrolidin-3-yl)amino]-3-methyl-6-pyridin-4-ylpyrimidin-4(3H)-one] | 39 |
| CC(=O)N1CCCCC(Nc2nc(-c3ccncc3)cc(=O)n2C)C1 (stereo not shown) [Example 46, 2-[(1-Acetylazepan-3-yl)amino]-3-methyl-6-pyridin-4-ylpyrimidin-4(3H)-one] | 51 |
| CC(=O)N1CCC(Nc2nc(-c3ccncc3)cc(=O)n2C)CC1 [Example 47, 2-[(1-Acetylpiperidin-4-yl)amino]-3-methyl-6-pyridin-4-ylpyrimidin-4(3H)-one] | 44 |
| CC(=O)N1CCCC(Nc2nc(-c3ccncc3)cc(=O)n2C)C1 (stereo not shown) [Example 48, 2-[(1-Acetylpiperidin-3-yl)amino]-3-methyl-6-pyridin-4-ylpyrimidin-4(3H)-one] | 55 |
| CC(=O)N1C[C@@H]2[C@H](C1)[C@H]2Nc1nc(-c2ccncc2)cc(=O)n1C [Example 49, 2-{[(1R,5S,6s)-3-Acetyl-3-azabicyclo[3.1.0]hex-6-yl]amino}-3-methyl-6-pyridin-4-ylpyrimidin-4(3H)-one] | 75 |
| CC(=O)N1C[C@H](F)[C@H](Nc2nc(-c3ccncc3)cc(=O)n2C)C1 [Example 51, 2-{[(3R,4S)-1-Acetyl-4-fluoropyrrolidin-3-yl]amino}-3-methyl-6-pyridin-4-ylpyrimidin-4(3H)-one] | 78 |
| CC(=O)N1CCC(N(C)c2nc(-c3ccncc3)cc(=O)n2C)C1 (stereo not shown) [Example 52, 2-[(1-Acetylpyrrolidin-3-yl)(methyl)amino]-3-methyl-6-pyridin-4-ylpyrimidin-4(3H)-one] | 51 |
| CC(=O)N1CCCC(N(C)c2nc(-c3ccncc3)cc(=O)n2C)CC1 (stereo not shown) [Example 53, 2-[(1-Acetylazepan-4-yl)(methyl)amino]-3-methyl-6-pyridin-4-ylpyrimidin-4(3H)-one] | 79 |
| CCN(c1nc(-c2ccncc2)cc(=O)n1C)C1CCN(C(C)=O)C1 (stereo not shown) [Example 54, 2-[(1-Acetylpyrrolidin-3-yl)(ethyl)amino]-3-methyl-6-pyridin-4-ylpyrimidin-4(3H)-one] | 64 |
| CC(=O)N1CC[C@@]2(C)C[C@H](N(C)c3nc(-c4ccncc4)cc(=O)n3C)CC[C@@H]12 [Example 55, 2-{[(3a,S5,R7,aR)-1-Acetyl-3a-methyloctahydro-1H-indol-5-yl](methyl)amino}-3-methyl-6-pyridin-4-ylpyrimidin-4(3H)-one] | 71 |
| CCN(c1nc(-c2ccncc2)cc(=O)n1C)C1CCCN(C(C)=O)CC1 (stereo not shown) [Example 56, 2-[(1-Acetylazepan-4-yl)(ethyl)amino]-3-methyl-6-pyridin-4-ylpyrimidin-4(3H)-one] | 85 |
| CCN(c1nc(-c2ccncc2)cc(=O)n1C)C1CCN(C(C)=O)CC1 [Example 57, 2-[(1-Acetylpiperidin-4-yl)(ethyl)amino]-3-methyl-6-pyridin-4-ylpyrimidin-4(3H)-one] | 93 |
| CC(=O)N1CCC[C@@H]1CNc1nc(-c2ccncc2)cc(=O)n1C [Example 58, 2-({[(2R)-1-Acetylpyrrolidin-2-yl]methyl}amino)-3-methyl-6-pyridin-4-ylpyrimidin-4(3H)-one] | 64 |
| CC(=O)N1CCC(CNc2nc(-c3ccncc3)cc(=O)n2C)C1 (stereo not shown) [Example 59, 2-{[(1-Acetylpyrrolidin-3-yl)methyl]amino}-3-methyl-6-pyridin-4-ylpyrimidin-4(3H)-one] | 37 |
| CC(=O)N[C@@H]1CC[C@@H](Nc2nc(-c3ccncc3)cc(=O)n2C)C1 [Example 60, N-{(1R,3R)-3-[(1-Methyl-6-oxo-4-pyridin-4-yl-16-dihydropyrimidin-2-yl)amino]cyclopentyl} acetamide] | 77 |

Same assay, conditions: cell free enzyme assay; Examples 1-35

| Compound | IC50 [nM] |
| --- | --- |
| Cn1c(NCCn2c(=O)ccc3ccccc32)nc(-c2ccncc2)cc1=O [Example 30, 1-{2-[(1-Methyl-6-oxo-4-pyridin-4-yl-1,6-dihydropyrimidin-2-yl)amino]ethyl} quinolin-2(1H)-one] | 25 |
| CN(c1nc(-c2ccncc2)cc(=O)n1C)[C@@H]1CC[C@H]2N(C(=O)OC(C)(C)C)CC[C@@]2(C)C1 [Example 31, tert-butyl (3aS,5R,7aR)-3a-Methyl-5-[methyl(1-methyl-6-oxo-4-pyridin-4-yl-1,6-dihydropyrimidin-2-yl)amino]octahydro-1H-indole-1-carboxylate] | 30.1 |
| Cn1c(NC[C@H]2CCCN2C(=O)OC(C)(C)C)nc(-c2ccncc2)cc1=O [Example 32, tert-butyl (2R)-2-{[(1-Methyl-6-oxo-4-pyridin-4-yl-1,6-dihydropyrimidin-2-yl)amino]methyl} pyrrolidine-1-carboxylate] | 71 |
| Cn1c(N[C@@H]2CN(C(=O)OC(C)(C)C)C[C@@H]2F)nc(-c2ccncc2)cc1=O [Example 33, tert-butyl (3S,4R)-3-Fluoro-4-[(1-methyl-6-oxo-4-pyridin-4-yl-1,6-dihydropyrimidin-2-yl)amino]pyrrolidine-1-carboxylate] | 77 |
| Cn1c(NCC2CCN(C(=O)OC(C)(C)C)C2)nc(-c2ccncc2)cc1=O (stereo not shown) [Example 34, tert-butyl 3-{[(1-Methyl-6-oxo-4-pyridin-4-yl-1,6-dihydropyrimidin-2-yl)amino]methyl} pyrrolidine-1-carboxylate] | 113 |
| Cn1c(NCC2CCCCN2C(=O)OC(C)(C)C)nc(-c2ccncc2)cc1=O (stereo not shown) [Example 35, tert-butyl 2-{[(1-Methyl-6-oxo-4-pyridin-4-yl-1,6-dihydropyrimidin-2-yl)amino]methyl} piperidine-1-carboxylate] | 168 |

Same assay, conditions: cell free enzyme assay; Examples 62-155

| Compound | IC50 [nM] |
| --- | --- |
| Cn1c(NC2CCN(C(=O)c3ccccc3)C2)nc(-c2ccncc2)cc1=O (stereo not shown) [Example 62, 2-[(1-Benzoylpyrrolidin-3-yl)amino]-3-methyl-6-pyridin-4-ylpyrimidin-4(3H)-one] | 77.5 |
| Cn1c(NC2CCCN(C(=O)c3ccccc3)CC2)nc(-c2ccncc2)cc1=O (stereo not shown) [Example 63, 2-[(1-Benzoylazepan-4-yl)amino]-3-methyl-6-pyridin-4-ylpyrimidin-4(3H)-one] | 12.4 |
| Cn1c(NC2CN(C(=O)c3ccccc3)C2)nc(-c2ccncc2)cc1=O [Example 64, 2-[(1-Benzoylazetidin-3-yl)amino]-3-methyl-6-pyridin-4-ylpyrimidin-4(3H)-one] | 367 |
| Cn1c(NC2CCN(C(=O)c3ccccc3)CC2)nc(-c2ccncc2)cc1=O [Example 65, 2-[(1-Benzoylpiperidin-4-yl)amino]-3-methyl-6-pyridin-4-ylpyrimidin-4(3H)-one] | 202 |
| Cn1c(NC2CCCN(C(=O)c3ccccc3)C2)nc(-c2ccncc2)cc1=O (stereo not shown) [Example 66, 2-[(1-Benzoylpiperidin-3-yl)amino]-3-methyl-6-pyridin-4-ylpyrimidin-4(3H)-one] | 1000 |
| Cn1c(N[C@H]2[C@@H]3CN(C(=O)c4ccccc4)C[C@@H]32)nc(-c2ccncc2)cc1=O [Example 67, 2-{[(1R,5S,6s)-3-Benzoyl-3-azabicyclo[3.1.0]hex-6-yl]amino}-3-methyl-6-pyridin-4-ylpyrimidin-4(3H)-one] | 2 |
| Cn1c(N[C@@H]2CN(C(=O)c3ccccc3)C[C@@H]2F)nc(-c2ccncc2)cc1=O [Example 68, 2-{[(3R,4S)-1-Benzoyl-4-fluoropyrrolidin-3-yl]amino}-3-methyl-6-pyridin-4-ylpyrimidin-4(3H)-one] | 56 |
| CCN(c1nc(-c2ccncc2)cc(=O)n1C)C1CCN(C(=O)c2ccccc2)C1 (stereo not shown) [Example 69, 2-[(1-Benzoylpyrrolidin-3-yl)(ethyl)amino]-3-methyl-6-pyridin-4-ylpyrimidin-4(3H)-one] | 96.1 |
| CN(c1nc(-c2ccncc2)cc(=O)n1C)C1CCN(C(=O)c2ccccc2)C1 (stereo not shown) [Example 70, 2-[(1-Benzoylpyrrolidin-3-yl)(methyl)amino]-3-methyl-6-pyridin-4-ylpyrimidin-4(3H)-one] | 170 |
| CCN(c1nc(-c2ccncc2)cc(=O)n1C)C1CCCN(C(=O)c2ccccc2)CC1 (stereo not shown) [Example 71, 2-[(1-Benzoylazepan-4-yl)(ethyl)amino]-3-methyl-6-pyridin-4-ylpyrimidin-4(3H)-one] | 36.3 |
| CN(c1nc(-c2ccncc2)cc(=O)n1C)C1CCCN(C(=O)c2ccccc2)CC1 (stereo not shown) [Example 72, 2-[(1-Benzoylazepan-4-yl)(methyl)amino]-3-methyl-6-pyridin-4-ylpyrimidin-4(3H)-one] | 61.5 |
